From patent US20090234023A1, “SUBSTITUTED HYDROXYACETOPHENONE DERIVATIVES” (Riemser Arzneimittel AG, priority 2004, published 2009)
In brackets after ≈: the same amount, converted by molar mass. Where two headings read alike, the source gives them in different places.

Legend:
[1] = test system: human cancer cell lines NCI-460, MCF-7, NCI-ADR, UACC-62, K-562, HT-29, 786-0, OVCAR-3, PC-3; assay: SRB test, all tested human cancer cell lines (FIGS. 1-6)
[2] = test system: Salmonella choterasuis; assay: Antimicrobial test (MIC), microtitre plates, TTC stain; type: cell-based; conditions: Salmonella choterasuis (Tables 3, 4: Salmonella), 48 h, 36° C.
Method: (§1) The inoculum for the tests was prepared by diluting the microorganisms in 0.85% NaCl, the dilution was set to level 0.5 according to McFarland and checked at 580 nm in the spectrophotometer. The cell suspensions were diluted to 10^4 UFC/ml for the application in the tests. The MIC tests were carried out according to the instructions of J. N. P. Eloff (Planta Medica Vol. 64, pp. 711-713, 1998)) in microtitre plates with 96 wells. […] The inoculum (100 μl) was placed in all wells and the plates were incubated for 48 h at a temperature of 36° C. The antimicrobial activity was detected by adding 20 μl of a 0.5% aqueous solution of TTC (tetrazolium chloride, Merck) per well. The minimal inhibition concentration (MIC) was defined as the lowest concentration of the compound that inhibited visible growth (indicated by TTC stain).

[3] = test system: Micrococcus luteus; assay: as above; type: cell-based; conditions: 48 h, 36° C.
Method: as §1

[4] = test system: Candida albicans; assay: as above; type: cell-based; conditions: 48 h, 36° C.
Method: as §1

[5] = test system: Escherichia coli; assay: as above; type: cell-based; conditions: 48 h, 36° C.
Method: as §1

[6] = test system: E. faecium; assay: as above; type: cell-based; conditions: Enterococcus faecium, 48 h, 36° C.
Method: as §1

[7] = test system: Rhodococcus equi; assay: as above; type: cell-based; conditions: Rhodococcus (subgen. Prescottella) equi, 48 h, 36° C.
Method: as §1

[8] = test system: Staphylococcus aureus; assay: as above; type: cell-based; conditions: 48 h, 36° C.
Method: as §1

[9] = test system: B. subtilis; assay: as above; type: cell-based; conditions: Bacillus subtilis, 48 h, 36° C.
Method: as §1

[10] = test system: S. epidermides; assay: as above; type: cell-based; conditions: 48 h
Method: as §1

[11] = test system: S. falcium; assay: as above; type: cell-based; conditions: 48 h, 36° C.
Method: as §1

[12] = test system: E. falcium; assay: as above; type: cell-based; conditions: 48 h, 36° C.
Method: as §1

[13] = test system: mamma (breast) MCF-7; conditions: MCF7, 48 hours incubation
[14] = test system: Lung NCI-460; conditions: for ED50 (effective dosage which killed 50% of the human cancer cells): NCI460, 48 hours incubation; for cytocidal activity: NCI-460 (lung cancer cell line)
[15] = test system: skin cancer (melanoma) UACC-62; conditions: for ED50 (effective dosage which killed 50% of the human cancer cells): UACC62, 48 hours incubation
[16] = test system: WI38 (fibroblasts); assay: Comparison test on non-pathogenic line; conditions: WI38, non-pathogenic line for comparison

Compound	MIC [3] [µg/mL]	MIC [4] [µg/mL]	MIC [5] [µg/mL]	MIC [7] [µg/mL]	MIC [8] [µg/mL]	MIC [9] [µg/mL]	MIC [12] [µg/mL]	concentration at which cytostatic activity begins ([1]; against all tested cell lines) [µg/mL]	MIC [2] [µg/mL]	MIC [6] [µg/mL]	MIC [11] [µg/mL]	also measured
CC(=O)c1ccc(OCC=C(C)C)cc1OCC=C(C)C [2,4O, 1-[2,4-bis(3-methylbut-2-enyloxy)phenyl]ethanone]	500 to 1000 (≈ 1730 to 3470 µM)	500 to 1000 (≈ 1730 to 3470 µM)	500 to 1000 (≈ 1730 to 3470 µM)	500 to 1000 (≈ 1730 to 3470 µM)	500 to 1000 (≈ 1730 to 3470 µM)	500 to 1000 (≈ 1730 to 3470 µM)		25	500 to 1000 (≈ 1730 to 3470 µM)	500 to 1000 (≈ 1730 to 3470 µM)	500 to 1000 (≈ 1730 to 3470 µM)	concentration at which cytocidal activity begins ([1]; against all tested cell lines): 250 µg/mL; MIC [10]: 500 to 1000 µg/mL (≈ 1730 to 3470 µM)
O=C(N[C@H](CO)[C@H](O)c1ccc([N+](=O)[O-])cc1)C(Cl)Cl [Chloramphenicol, reference compound]	50 (≈ 155 µM)		40 (≈ 124 µM)	40 (≈ 124 µM)	20 (≈ 61.9 µM)	20 (≈ 61.9 µM)	120 (≈ 371 µM)		60 (≈ 186 µM)	120 (≈ 371 µM)	120 (≈ 371 µM)	MIC ([10]; S. epidermides, 36° C., read-out: MIC): 40 µg/mL (≈ 124 µM)
C=CC(C)(C)c1cc(CC=C(C)C)cc(C(C)=O)c1O [LMK7, 1-[3-(1,1-dimethylallyl)-2-hydroxy-5-(3-methylbut-2-enyl)phenyl]-ethanone]								25				cytocidal activity [14]: did not, however, exhibit any cytocidal activity
CC(=O)c1ccc(OCC=C(C)C)cc1 [LP1, 1-[4-(3-methylbut-2-enyloxy)phenyl]ethanone]	> 1500	> 1500	> 1500	> 1500	> 1500	> 1500		25	120 to 250 (≈ 587 to 1220 µM)	> 1500	> 1500	concentration at which cytocidal activity begins ([1]; against all tested cell lines): 250 µg/mL; melting point: 47 °C; MIC [10]: 60 to 120 µg/mL (≈ 294 to 587 µM)

Continued, in another order:

MIC [3] [µg/mL]	MIC [4] [µg/mL]	MIC [5] [µg/mL]	MIC [7] [µg/mL]	MIC [8] [µg/mL]	MIC [9] [µg/mL]	MIC [12] [µg/mL]	Compound	concentration at which cytostatic activity begins ([1]; against all tested cell lines) [µg/mL]	MIC [2] [µg/mL]	MIC [6] [µg/mL]	MIC [11] [µg/mL]	also measured
250 to 500 (≈ 1220 to 2450 µM)	60 (≈ 294 µM)	> 1000	> 1000	500 (≈ 2450 µM)	500 to 1000 (≈ 2450 to 4900 µM)	250 (≈ 1220 µM)	CC(=O)c1ccccc1OCC=C(C)C [Compound L1, 1-[2-(3-methylbut-2-enyloxy)phenyl]ethanone]		250 (≈ 1220 µM)			ED50 (effective dosage which killed 50% of the human cancer cells) [13]: 25.0 µg/mL; cytostatic activity (inhibition of cell growth) ([1]; against all tested cell lines): cytostatic activity; ED50 (effective dosage which killed 50% of the human cancer cells) [14]: 25.0 µg/mL; cytocidal activity [14]: cytocidal activity; ED50 (effective dosage which killed 50% of the human cancer cells) [15]: 45.0 µg/mL; cytocidal activity ([15]; UACC-62): cytocidal activity
500 to 1000 (≈ 2450 to 4900 µM)	50 (≈ 245 µM)	50 (≈ 245 µM)	> 1000	> 1000	500 to 1000 (≈ 2450 to 4900 µM)	500 to 1000 (≈ 2450 to 4900 µM)	CC(=O)c1cc(CC=C(C)C)ccc1O [Compound L2]		500 to 1000 (≈ 2450 to 4900 µM)			ED50 (effective dosage which killed 50% of the human cancer cells) [13]: 6.0 µg/mL; activity on all cell lines ([1]; at concentrations ranging between 0.5 and 250 μg/ml): very strong activity; ED50 (effective dosage which killed 50% of the human cancer cells) [14]: 9.0 µg/mL; ED50 (effective dosage which killed 50% of the human cancer cells) [15]: 4.2 µg/mL; activity against fibroblasts [16]: not active against fibroblasts; activity against fibroblasts ([16]; listed as 1-[2-Hydroxy-5-(3-methylbut-2-enyl)ethanone): without damaging the fibroblasts
500 to 1000 (≈ 1840 to 3670 µM)	900 (≈ 3300 µM)	> 1000	> 1000	> 1000	> 1000	500 to 1000 (≈ 1840 to 3670 µM)	CC(=O)c1cc(CC=C(C)C)ccc1OCC=C(C)C [Compound L3, 1-[5-(3-methylbut-2-enyl)-2-(3-methylbut-2-enyloxy)phenyl]-ethanone]		> 1500			
